± gives the uncertainty stated by the source.
Test: xn = mol fraction of the nth substance listed

c1ccccc1 + CC(C)O
viscosity [mPa·s], 101 kPa
Details | x1 = 0.0575 | x1 = 0.144 | x1 = 0.225 | x1 = 0.362 | x1 = 0.558 | x1 = 0.651 | x1 = 0.732 | x1 = 0.798 | x1 = 0.886
298.15 K | 1.733 ± 0.019 | 1.369 ± 0.015 | 1.139 ± 0.012 | 0.89 ± 0.01 | 0.69 ± 0.007 | 0.639 ± 0.007 | 0.614 ± 0.006 | 0.607 ± 0.006 | 0.602 ± 0.006
303.15 K | 1.512 ± 0.016 | 1.206 ± 0.013 | 1.015 ± 0.011 | 0.8 ± 0.008 | 0.643 ± 0.007 | 0.593 ± 0.006 | 0.572 ± 0.006 | 0.565 ± 0.006 | 0.561 ± 0.006
308.15 K | 1.325 ± 0.014 | 1.068 ± 0.011 | 0.905 ± 0.01 | 0.73 ± 0.008 | 0.592 ± 0.006 | 0.551 ± 0.006 | 0.531 ± 0.006 | 0.527 ± 0.006 | 0.524 ± 0.006
313.15 K | 1.16 ± 0.012 | 0.948 ± 0.01 | 0.814 ± 0.009 | 0.668 ± 0.007 | 0.556 ± 0.006 | 0.511 ± 0.005 | 0.497 ± 0.005 | 0.493 ± 0.005 | 0.493 ± 0.005
318.15 K | 1.026 ± 0.011 | 0.852 ± 0.009 | 0.732 ± 0.008 | 0.616 ± 0.006 | 0.518 ± 0.006 | 0.475 ± 0.005 | 0.465 ± 0.005 | 0.463 ± 0.005 | 0.461 ± 0.005

CN(C)C=O + CC(C)O
viscosity [mPa·s], 101 kPa
Details | 298.15 K | 303.15 K | 308.15 K | 313.15 K | 318.15 K | 323.15 K
x1 = 0.0879 | 1.65 ± 0.04 | 1.44 ± 0.03 | 1.3 ± 0.1 | 1.14 ± 0.03 | – | –
x1 = 0.0995 | – | 1.385 ± 0.011 | 1.237 ± 0.0097 | 1.096 ± 0.0087 | 0.9913 ± 0.008 | 0.88 ± 0.0072
x1 = 0.1606 | 1.46 ± 0.03 | 1.28 ± 0.03 | 1.16 ± 0.03 | 1.03 ± 0.02 | – | –
x1 = 0.1992 | – | 1.166 ± 0.0093 | 1.057 ± 0.0085 | 0.9438 ± 0.0077 | 0.8597 ± 0.0071 | 0.778 ± 0.0065
x1 = 0.2389 | 1.34 ± 0.03 | 1.18 ± 0.03 | 1.08 ± 0.02 | 0.95 ± 0.02 | – | –
x1 = 0.3011 | – | 1.034 ± 0.0084 | 0.9443 ± 0.0078 | 0.8524 ± 0.0071 | 0.7903 ± 0.0067 | 0.7214 ± 0.0062
x1 = 0.3433 | 1.24 ± 0.03 | 1.1 ± 0.1 | 1.01 ± 0.02 | 0.9 ± 0.1 | – | –
x1 = 0.4009 | – | 0.9507 ± 0.0079 | 0.8752 ± 0.0074 | 0.8075 ± 0.0069 | 0.7462 ± 0.0064 | 0.6851 ± 0.006
x1 = 0.44 | 1.16 ± 0.03 | 1.05 ± 0.02 | 0.96 ± 0.02 | 0.87 ± 0.02 | – | –
x1 = 0.4512 | 1.297 ± 0.32 | – | – | – | – | –
x1 = 0.4737 | – | 0.9177 ± 0.0078 | 0.8467 ± 0.0073 | 0.7863 ± 0.0068 | 0.7252 ± 0.0064 | 0.6742 ± 0.006
x1 = 0.5597 | 1.07 ± 0.02 | 0.98 ± 0.02 | 0.9 ± 0.1 | 0.82 ± 0.02 | – | –
x1 = 0.5987 | – | 0.8585 ± 0.0075 | 0.7964 ± 0.007 | 0.7362 ± 0.0066 | 0.6938 ± 0.0062 | 0.6453 ± 0.0059
x1 = 0.6504 | 1.01 ± 0.02 | 0.94 ± 0.02 | 0.86 ± 0.02 | 0.8 ± 0.1 | – | –
x1 = 0.7011 | – | 0.8282 ± 0.0074 | 0.771 ± 0.007 | 0.7187 ± 0.0066 | 0.6776 ± 0.0062 | 0.6312 ± 0.0059
x1 = 0.735 | 0.96 ± 0.02 | 0.89 ± 0.02 | 0.83 ± 0.02 | 0.76 ± 0.02 | – | –
x1 = 0.7991 | – | 0.796 ± 0.0073 | 0.7476 ± 0.0069 | 0.6985 ± 0.0065 | 0.6578 ± 0.0062 | 0.6196 ± 0.0059
x1 = 0.8522 | 0.89 ± 0.02 | 0.83 ± 0.02 | 0.78 ± 0.02 | 0.72 ± 0.02 | – | –
x1 = 0.8995 | – | 0.7844 ± 0.0074 | 0.7374 ± 0.007 | 0.6874 ± 0.0066 | 0.6507 ± 0.0063 | 0.614 ± 0.006
x1 = 0.9422 | 0.84 ± 0.02 | 0.79 ± 0.02 | 0.74 ± 0.02 | 0.69 ± 0.02 | – | –

CCCCCCCCCCCCCC + COc1ccccc1
viscosity [mPa·s], 101 kPa
Details | x1 = 0.1012 | x1 = 0.2027 | x1 = 0.3005 | x1 = 0.3936 | x1 = 0.4986 | x1 = 0.6001 | x1 = 0.6977 | x1 = 0.7959 | x1 = 0.8991
298.15 K | 0.996 ± 0.095 | 1.035 ± 0.099 | 1.105 ± 0.1 | 1.241 ± 0.12 | 1.311 ± 0.12 | 1.38 ± 0.13 | 1.45 ± 0.13 | 1.521 ± 0.14 | 1.697 ± 0.15
303.15 K | 0.916 ± 0.089 | 0.974 ± 0.093 | 1.004 ± 0.096 | 1.116 ± 0.11 | 1.21 ± 0.11 | 1.304 ± 0.12 | 1.398 ± 0.13 | 1.493 ± 0.14 | 1.587 ± 0.14
308.15 K | 0.855 ± 0.084 | 0.907 ± 0.088 | 0.932 ± 0.09 | 1.028 ± 0.098 | 1.089 ± 0.1 | 1.149 ± 0.11 | 1.209 ± 0.11 | 1.27 ± 0.12 | 1.331 ± 0.12

CCCCCO + CC#N
viscosity [mPa·s], 101 kPa
Details | 298.15 K | 303.15 K | 308.15 K
x2 = 0.1083 | 2.485 ± 0.22 | 1.966 ± 0.18 | 1.752 ± 0.16
x2 = 0.1933 | 1.918 ± 0.17 | 1.703 ± 0.15 | 1.519 ± 0.14
x2 = 0.2503 | 1.717 ± 0.15 | 1.477 ± 0.14 | 1.334 ± 0.12
x2 = 0.3407 | 1.33 ± 0.12 | 1.2 ± 0.11 | 1.088 ± 0.1
x2 = 0.4797 | 0.963 ± 0.093 | 0.879 ± 0.086 | 0.804 ± 0.079
x2 = 0.5899 | 0.747 ± 0.075 | 0.688 ± 0.07 | 0.636 ± 0.065
x2 = 0.6833 | 0.619 ± 0.064 | 0.569 ± 0.06 | 0.527 ± 0.056
x2 = 0.7642 | 0.525 ± 0.056 | 0.486 ± 0.053 | 0.458 ± 0.05
x2 = 0.8347 | 0.452 ± 0.05 | 0.428 ± 0.048 | 0.41 ± 0.046
x2 = 0.8958 | 0.418 ± 0.047 | 0.392 ± 0.045 | 0.369 ± 0.043
x2 = 0.9508 | 0.374 ± 0.043 | 0.357 ± 0.042 | 0.342 ± 0.041

ClC(Cl)=C(Cl)Cl + COc1ccccc1
303.15 K, 101.3 kPa
Details | viscosity [mPa·s]
x2 = 0.0193 | 0.793 ± 0.013
x2 = 0.039 | 0.79 ± 0.013
x2 = 0.0561 | 0.792 ± 0.013
x2 = 0.1158 | 0.781 ± 0.013
x2 = 0.189 | 0.776 ± 0.013
x2 = 0.2303 | 0.778 ± 0.013
x2 = 0.2742 | 0.783 ± 0.013
x2 = 0.3317 | 0.787 ± 0.013
x2 = 0.3643 | 0.79 ± 0.013
x2 = 0.4286 | 0.801 ± 0.013
x2 = 0.4726 | 0.812 ± 0.013
x2 = 0.6096 | 0.831 ± 0.013
x2 = 0.6829 | 0.848 ± 0.014
x2 = 0.7292 | 0.856 ± 0.014
x2 = 0.7745 | 0.862 ± 0.014
x2 = 0.8665 | 0.878 ± 0.014
x2 = 0.8991 | 0.885 ± 0.014
x2 = 0.9485 | 0.899 ± 0.014

ClC(Cl)=C(Cl)Cl + CCCCCCC
303.15 K, 101 kPa
Details | viscosity [mPa·s]
x1 = 0.196 | 0.442 ± 0.01
x1 = 0.3642 | 0.497 ± 0.01
x1 = 0.4421 | 0.529 ± 0.01
x1 = 0.4713 | 0.543 ± 0.01
x1 = 0.5272 | 0.568 ± 0.009
x1 = 0.6106 | 0.61 ± 0.009
x1 = 0.6939 | 0.653 ± 0.009
x1 = 0.7237 | 0.668 ± 0.009
x1 = 0.8091 | 0.714 ± 0.008
x1 = 0.9254 | 0.775 ± 0.008

CCCCCCCCCCCCCC + CCCCOC(C)=O
298.15 K, 101.3 kPa
Details | viscosity [mPa·s]
x2 = 0.1284 | 1.825 ± 0.016
x2 = 0.2404 | 1.622 ± 0.014
x2 = 0.3362 | 1.467 ± 0.013
x2 = 0.4227 | 1.339 ± 0.012
x2 = 0.5018 | 1.23 ± 0.011
x2 = 0.5367 | 1.183 ± 0.01
x2 = 0.5715 | 1.142 ± 0.01
x2 = 0.6959 | 0.9335 ± 0.0083
x2 = 0.8024 | 0.8736 ± 0.0078
x2 = 0.8903 | 0.7842 ± 0.0071
x2 = 0.948 | 0.7283 ± 0.0066
